Laboratory results from the Kinase Knowledgebase extract (Sharma et al. 2016).

These molecules were tested against EGFR (UniProt P00533).
EGFR, sequence (P00533 whole entry, looked up): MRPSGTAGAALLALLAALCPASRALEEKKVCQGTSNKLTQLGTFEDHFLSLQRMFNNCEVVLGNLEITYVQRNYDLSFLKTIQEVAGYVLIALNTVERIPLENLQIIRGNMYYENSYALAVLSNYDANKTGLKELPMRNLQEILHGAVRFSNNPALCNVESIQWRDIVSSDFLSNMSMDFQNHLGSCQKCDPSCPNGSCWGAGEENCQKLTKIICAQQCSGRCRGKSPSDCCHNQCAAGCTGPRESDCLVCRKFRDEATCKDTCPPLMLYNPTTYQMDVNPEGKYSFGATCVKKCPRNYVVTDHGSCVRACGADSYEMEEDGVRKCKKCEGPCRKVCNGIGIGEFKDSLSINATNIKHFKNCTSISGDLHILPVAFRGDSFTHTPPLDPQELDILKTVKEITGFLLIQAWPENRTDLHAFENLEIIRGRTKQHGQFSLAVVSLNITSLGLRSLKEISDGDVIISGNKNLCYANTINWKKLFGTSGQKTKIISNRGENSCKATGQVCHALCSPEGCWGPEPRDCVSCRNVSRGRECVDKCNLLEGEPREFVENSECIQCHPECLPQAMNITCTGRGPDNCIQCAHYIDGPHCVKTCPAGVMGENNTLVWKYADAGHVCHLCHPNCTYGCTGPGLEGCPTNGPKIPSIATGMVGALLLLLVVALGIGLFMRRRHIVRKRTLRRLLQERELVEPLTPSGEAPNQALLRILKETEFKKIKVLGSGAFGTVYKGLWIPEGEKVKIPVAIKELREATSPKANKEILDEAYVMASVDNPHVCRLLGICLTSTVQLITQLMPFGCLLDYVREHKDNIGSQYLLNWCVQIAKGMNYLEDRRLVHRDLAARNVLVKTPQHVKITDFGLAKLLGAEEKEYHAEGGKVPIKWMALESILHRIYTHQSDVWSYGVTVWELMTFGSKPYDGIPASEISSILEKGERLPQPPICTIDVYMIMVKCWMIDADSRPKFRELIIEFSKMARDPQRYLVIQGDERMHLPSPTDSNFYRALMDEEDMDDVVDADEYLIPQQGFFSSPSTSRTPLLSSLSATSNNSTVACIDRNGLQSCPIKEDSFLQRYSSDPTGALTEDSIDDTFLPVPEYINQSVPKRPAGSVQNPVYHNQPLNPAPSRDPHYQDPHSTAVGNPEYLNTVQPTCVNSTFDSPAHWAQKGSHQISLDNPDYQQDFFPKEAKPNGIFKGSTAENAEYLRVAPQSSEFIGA

IC50, 2.4 to 3.5 µg/mL:
COc1cc(Nc2ncnc(N(Cc3ccccc3)c3nc4ccccc4[nH]3)n2)cc(OC)c1OC

IC50, > 4.5 µg/mL:
COc1ccc2c(c1)c(CCN(C)C)cn2-c1ncnc(Nc2cc(OC)c(OC)c(OC)c2)n1
COc1cccc(CCNc2ncnc(Nc3ccc4c(cnn4Cc4ccccc4)c3)n2)c1OC
COc1cc(Nc2ncnc(-n3c(NCc4ccccc4C)nc4ccccc43)n2)cc(OC)c1OC
COc1cc(Nc2ncnc(-n3c(NCC(C)C)nc4ccccc43)n2)cc(OC)c1OC
COc1cc(Nc2ncnc(-n3c(N[C@H](C)c4ccccc4)nc4ccccc43)n2)cc(OC)c1OC
FC(F)C(F)(F)Oc1cccc(Nc2ncnc(-c3ccnc(Cl)c3)n2)c1
COc1cc(Nc2ncnc(-c3c(O)[nH]c4ccccc34)n2)cc(OC)c1OC
COc1cc(Nc2ncnc(-n3cc(C#N)c4ccccc43)n2)cc(OC)c1OC
O=C(Nc1ccc(Nc2ncnc(-n3c(=O)[nH]c4ccccc43)n2)cc1)O[C@@H]1CCOC1
COc1cc(Nc2ncnc(-n3ccc4cc(O)ccc43)n2)cc(OC)c1OC
CN(c1cccc(Cl)c1)c1ncnc(Cl)n1
Fc1ccc(Nc2ncnc(-n3cccc3)n2)cc1
COc1cc(Nc2ncnc(-c3cccnc3Nc3ccc(C(F)(F)F)cc3)n2)cc(OC)c1OC
COc1cc(Nc2ncnc(-n3c(NCc4ccc(O)cc4)nc4ccccc43)n2)cc(OC)c1OC

IC50, 0.4 to 2.4 µg/mL:
CC(C)(C)c1cc(Nc2ncnc(Nc3cccc(CC(=O)O)c3)n2)[nH]n1
COc1cc(Nc2ncnc(N[C@@H]3CCCc4ccccc43)n2)cc(OC)c1OC
COC(=O)c1ccc(-c2cc(Nc3ncnc(NCCc4c[nH]c5ccccc45)n3)[nH]n2)cc1

IC50, < 0.4 µg/mL:
COc1cc(Nc2ncnc(N(C)c3cccc(Cl)c3)n2)cc2ccccc12
COc1cc(Nc2ncnc(N(c3ccc(Cl)cc3)c3nc4ccccc4[nH]3)n2)cc(OC)c1OC
Cc1cccc(Nc2ncnc(Nc3ccc(O)cc3)n2)c1
COc1cccc(Nc2ncnc(N(C)c3cccc(Cl)c3)n2)c1
